As usually defined, the EC50 is the midpoint of the concentration-response curve.

T1 sequence (P41594 21-1212): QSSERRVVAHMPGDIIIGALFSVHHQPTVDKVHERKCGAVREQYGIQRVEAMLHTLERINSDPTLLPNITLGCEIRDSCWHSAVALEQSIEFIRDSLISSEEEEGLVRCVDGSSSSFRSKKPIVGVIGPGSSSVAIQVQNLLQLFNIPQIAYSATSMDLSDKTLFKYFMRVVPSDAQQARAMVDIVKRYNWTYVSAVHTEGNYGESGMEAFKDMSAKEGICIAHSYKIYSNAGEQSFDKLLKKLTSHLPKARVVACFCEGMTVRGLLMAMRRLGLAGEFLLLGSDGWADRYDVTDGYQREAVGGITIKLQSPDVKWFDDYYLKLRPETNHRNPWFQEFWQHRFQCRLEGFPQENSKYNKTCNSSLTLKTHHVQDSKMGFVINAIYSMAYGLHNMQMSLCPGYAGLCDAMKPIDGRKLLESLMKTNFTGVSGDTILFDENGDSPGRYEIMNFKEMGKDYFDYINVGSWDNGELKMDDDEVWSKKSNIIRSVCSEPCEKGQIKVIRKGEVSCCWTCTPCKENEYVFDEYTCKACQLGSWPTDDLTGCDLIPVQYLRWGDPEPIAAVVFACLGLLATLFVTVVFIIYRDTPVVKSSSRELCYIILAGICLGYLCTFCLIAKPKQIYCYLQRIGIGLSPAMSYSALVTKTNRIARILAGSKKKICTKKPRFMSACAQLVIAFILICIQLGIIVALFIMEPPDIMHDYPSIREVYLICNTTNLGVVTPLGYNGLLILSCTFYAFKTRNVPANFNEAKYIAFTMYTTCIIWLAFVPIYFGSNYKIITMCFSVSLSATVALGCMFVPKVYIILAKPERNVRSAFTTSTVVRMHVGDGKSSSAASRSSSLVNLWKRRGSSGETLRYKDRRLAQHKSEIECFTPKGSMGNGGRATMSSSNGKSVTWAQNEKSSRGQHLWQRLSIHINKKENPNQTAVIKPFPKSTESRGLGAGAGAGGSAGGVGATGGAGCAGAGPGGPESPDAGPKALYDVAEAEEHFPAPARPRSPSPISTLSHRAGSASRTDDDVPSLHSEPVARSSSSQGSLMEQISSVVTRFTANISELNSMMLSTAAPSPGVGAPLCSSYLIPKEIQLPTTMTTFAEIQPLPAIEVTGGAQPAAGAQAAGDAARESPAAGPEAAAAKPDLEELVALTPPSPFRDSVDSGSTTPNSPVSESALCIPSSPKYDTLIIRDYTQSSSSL

The assay has as its target T1, human mGluR5 (Homo sapiens, UniProt P41594).
T1 construct: expressed in transfected cells; host or cells: HEK293 cells stably expressing rat GLAST (EAAT1), stably transfected with pcDNAzeo3.1 carrying synthetic human mGluR5 DNA; zeocin-selected single clones
Kind of assay: In vitro cell-based FLIPR calcium assay for positive modulation of the activation of mGluR5 by glutamate (PAM EC50). As to conditions: HEK293/GLAST cells expressing recombinant human mGluR5; FLIPR calcium signal; glutamate added at its EC20; read-out: mGluR5 PAM EC50. The procedure, abridged: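 PAM activity was measured as FLIPR calcium fluorescence in the presence of an EC20 glutamate concentration determined daily from a glutamate concentration-response curve. Cells were HEK293/GLAST clones expressing mGluR5, dye-loaded at 25 °C for 45–60 min in HEPES-buffered HBSS; vehicle control was 0.3% DMSO.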
For `CC1(C)CCn2c(nc3cc(/C=C/c4ccccc4F)ccc3c2=O)C1` [Example 20.6, (E)-3-(2-fluorostyryl)-7,7-dimethyl-8,9-dihydro-6H-pyrido[2,1-b]quinazolin-11(7H)-one], the EC50 lay in the range of 30 to 100 nM.

With `CC1(C)CCn2c(nc3cc(/C=C/c4ccccn4)ccc3c2=O)C1` [Example 20.7], the EC50 was 10 to 30 nM.

With `CC1(C)CCn2c(nc3cc(/C=C/c4cccc(C#N)n4)ccc3c2=O)C1` [Example 20.9, (E)-6-(2-(7,7-dimethyl-11-oxo-7,8,9,11-tetrahydro-6H-pyrido[2,1-b]quinazolin-3-yl)vinyl)picolinonitrile], the EC50 was 100 to 300 nM.

Turning to `O=c1c2ccc(/C=C/c3ccccn3)cc2nc2n1CCCCC2` [Example 20.10, (E)-3-(2-(pyridin-2-yl)vinyl)-7,8,9,10-tetrahydroazepino[2,1-b]quinazolin-12(6H)-one], the EC50 was in the range of 30 to 100 nM.

With `CC1(C)CCc2nc3cc(/C=C/c4ccccc4F)ccc3c(=O)n2C1` [Example 20.12, (E)-3-(2-fluorostyryl)-8,8-dimethyl-8,9-dihydro-6H-pyrido[2,1-b]quinazolin-11(7H)-one], the concentration for a half-maximal effect (EC50) lay in the range of 30 to 100 nM.

With `CC1(C)CCc2nc3cc(/C=C/c4cccc(C#N)n4)ccc3c(=O)n2C1` [Example 20.13, (E)-6-(2-(8,8-dimethyl-11-oxo-7,8,9,11-tetrahydro-6H-pyrido[2,1-b]quinazolin-3-yl)vinyl)picolinonitrile], the EC50 was 10 to 30 nM.

For `CC1Cc2nc3cc(/C=C/c4cccc(F)c4)ccc3c(=O)n2C1` (centres unmarked) [Example 20.14, 6-(3-fluorostyryl)-2,3-dihydro-2-methylpyrrolo[2,1-b]quinazolin-9(1H)-one], the EC50 is 100 to 300 nM.

On to `O=c1c2ccc(CCc3ccccc3)cc2nc2n1CCCCC2` [Example 21.1, 3-phenethyl-7,8,9,10-tetrahydroazepino[2,1-b]quinazolin-12(6H)-one], for which the 50% effective concentration (EC50) was 100 to 300 nM.

`O=C(Cc1ccccc1)c1ccc2c(=O)n3c(nc2c1)CCCCC3` [Example 21.3, 3-(2-phenylacetyl)-7,8,9,10-tetrahydroazepino[2,1-b]quinazolin-12(6H)-one]: the EC50 lay in the range of 100 to 300 nM.

Turning to `CC1(C)CCn2c(nc3cc(CCc4ccccn4)ccc3c2=O)C1` [Example 21.6, 7,7-dimethyl-3-(2-(pyridin-2-yl)ethyl)-8,9-dihydro-6H-pyrido[2,1-b]quinazolin-11(7H)-one], the concentration for a half-maximal effect (EC50) fell in the range of 300 to 1000 nM.

On to `CC1Cc2nc3cc(CCc4cccc(F)c4)ccc3c(=O)n2C1` (centres unmarked) [Example 21.7, 6-(3-fluorophenethyl)-2-methyl-2,3-dihydropyrrolo[2,1-b]quinazolin-9(1H)-one], for which the EC50 was in the range of 300 to 1000 nM.

With `Cc1cnc(NC(=O)c2ccc3c(=O)n4c(nc3c2)CCC(C)CC4)s1` (centres unmarked) [Example 23.1, 8-methyl-N-(5-methylthiazol-2-yl)-12-oxo-6,7,8,9,10,12-hexahydroazepino[2,1-b]quinazoline-3-carboxamide], the concentration for a half-maximal effect (EC50) was 100 to 300 nM.

Consider `Cc1cnc(NC(=O)c2ccc3c(=O)n4c(nc3c2)CCOCC4)s1` [Example 23.2, N-(5-methylthiazol-2-yl)-11-oxo-2,4,5,11-tetrahyrdo-1H-[1,4]oxazepino[5,4-b]quinazoline-8-carboxamide], for which the 50% effective concentration (EC50) was 100 to 300 nM.

In the case of `O=C(Nc1ccc2c(=O)n3c(nc2c1)CCCCCC3)c1ccc(F)cc1` [Example 24.1, 4-fluoro-N-(13-oxo-7,8,9,10,11,13-hexahydro-6H-azocino[2,1-b]quinazolin-3-yl)benzamide], the concentration for a half-maximal effect (EC50) lay in the range of 300 to 1000 nM.

Consider `C/C=C1\CCCCCn2c1nc1cc(C(=O)Nc3ncc(C)s3)ccc1c2=O` [Example 25.1, (E)-6-ethylidene-N-(5-methylthiazol-2-yl)-13-oxo-7,8,9,10,11,13-hexahydro-6H-azocino[2,1-b]quinazoline-3-carboxamide], for which the EC50 was below 10 nM.

Regarding `Cc1cnc(NC(=O)c2ccc3c(=O)n4c(nc3c2)C(C)CCCCC4)s1` (centres unmarked) [Example 25.3, 6-methyl-N-(5-methylthiazol-2-yl)-13-oxo-7,8,9,10,11,13-hexahydro-6H-azocino[2,1-b]quinazoline-3-carboxamide], the EC50 was 10 to 30 nM.

In the case of `O=C(Nc1ccc(F)cc1)c1ccc2c(c1)N=C1CCCCCCN1C2` [Example 26.1, N-(4-fluorophenyl)-7,8,9,10,11,13-hexahydro-6H-azocino[2,1-b]quinazoline-3-carboxamide], the EC50 fell in the range of 300 to 1000 nM.

On to `Cc1cnc(NC(=O)c2ccn3c(=O)c4c(nc3c2)CCCCCC4)s1` [Example 28.1, N-(5-methylthiazol-2-yl)-12-oxo-7,8,9,10,11,12-hexahydro-6H-cycloocta[d]pyrido[1,2-a]pyrimidine-3-carboxamide], for which the EC50 was below 10 nM.

For the compound `O=C(Nc1ccc(F)cc1)c1ccn2c(=O)c3c(nc2c1)CCCCCC3` [Example 28.2, N-(4-fluorophenyl)-12-oxo-7,8,9,10,11,12-hexahydro-6H-cycloocta[d]pyrido[1,2-a]pyrimidine-3-carboxamide], the EC50 lay within 300 to 1000 nM.

As to `Cc1cnc(NC(=O)c2ccn3c(=O)c4c(nc3c2)CCCCC4)s1` [Example 28.3, N-(5-methylthiazol-2-yl)-11-oxo-6,7,8,9,10,11-hexahydrocyclohepta[d]pyrido[1,2-a]pyrimidine-3-carboxamide], the EC50 lay within 30 to 100 nM.

The values above are taken from patent publication US10077243B2, “Compounds for treating disorders mediated by metabotropic glutamate receptor 5, and methods of use thereof” (Sunovion Pharmaceuticals Inc., priority 2009, dated 2018).
